Drawing on PubChem BioAssay AID200 (DTP/NCI, 2004), this text covers T/C for 16 compounds.

Where “and” joins values, the source holds several entries; their conditions need not be identical. Equal entries are not always repeated. Inconclusive results and toxic doses are left out.

In the experiment the test system is B6C3F1 mice, B16 melanoma ip, median survival T/C. Description: NCI In Vivo Anticancer Drug Screen. Data for tumor model B16 Melanoma (intraperitoneal) in B6C3F1 mice. Conditions: endpoint: median survival time, schedule: Q01DX009 (ip), higher = longer survival. A digest of the protocol:
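Values are T/C ratios: the measurement in treated animals divided by that in vehicle-treated controls, using survival or tumor size in mice carrying transplantable tumors.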

Setting [1] is: dose: 3.12 mg/kg/injection, vehicle: saline with Tween-80.
Setting [2] is: dose: 6.25 mg/kg/injection, vehicle: saline with Tween-80.
[3] abbreviates: dose: 12.5 mg/kg/injection, vehicle: saline with Tween-80.
[4] abbreviates: dose: 25.0 mg/kg/injection, vehicle: saline with Tween-80.
Setting [5] is: dose: 12.5 mg/kg/injection, vehicle: Klucel (hydroxypropylcellulose) (HPC).
Setting [6] is: dose: 25.0 mg/kg/injection, vehicle: Klucel (hydroxypropylcellulose) (HPC).
[7] abbreviates: dose: 50.0 mg/kg/injection, vehicle: Klucel (hydroxypropylcellulose) (HPC).
Setting [8] is: dose: 6.25 mg/kg/injection, vehicle: saline.
The mark [9] stands for this setting: dose: 12.5 mg/kg/injection, vehicle: saline.
The mark [10] stands for this setting: dose: 50.0 mg/kg/injection, vehicle: saline with Tween-80.
[11] abbreviates: dose: 100.0 mg/kg/injection, vehicle: saline with Tween-80.

As to `COc1ccccc1Cc1c(OC)cc(OC)c(C(=O)CCc2ccccc2)c1O`, the T/C is 101 % of control (dose: 4.3 mg/kg/injection, vehicle: other); 92 % of control (dose: 6.4 mg/kg/injection, vehicle: other); 89 % of control (dose: 9.6 mg/kg/injection, vehicle: other); 94 % of control (dose: 14.0 mg/kg/injection, vehicle: other).

With `CCCCCCCCCCCCCC#CC(=O)O`, the T/C is 110 % of control and 94 % of control under setting [1]; 112 % of control and 94 % of control under setting [2]; 92 % of control and 105 % of control under setting [3]; 89 % of control under setting [4].

On to `O=[n+]1c2ccccc2n([O-])c2ccccc21.[Cl][Ni][Cl]`, for which the T/C reads like this: (dose: 1.56 mg/kg/injection, vehicle: saline with Tween-80) 103 % of control; under setting [1], 95 % of control; under setting [2], 97 % of control; under setting [3], 113 % of control; under setting [4], 91 % of control.

`CC1C=NNC1=O` (stereo not given): the T/C by setting is: under setting [5], 100 % of control; under setting [6], 102 % of control; under setting [7], 117 % of control; (dose: 100.0 mg/kg/injection, vehicle: Klucel (hydroxypropylcellulose) (HPC)) 92 % of control; (dose: 200.0 mg/kg/injection, vehicle: Klucel (hydroxypropylcellulose) (HPC)) 95 % of control; (dose: 400.0 mg/kg/injection, vehicle: Klucel (hydroxypropylcellulose) (HPC)) 95 % of control.

In the case of `COC(=O)[C@@]12OC[C@]34[C@H]([C@@H](O)[C@@H]1O)[C@@]1(C)CC(=O)C(O)=C(C)[C@@H]1C[C@H]3OC(=O)[C@H](OC(=O)CC(C)C)[C@@H]24`, the T/C (dose: 1.0 mg/kg/injection, vehicle: saline + alcohol) is 156 % of control and 157 % of control; the T/C (dose: 2.0 mg/kg/injection, vehicle: saline + alcohol) is 180 % of control.

Take `CCOC(=O)N1CCN(CCCCCCOc2ccc(C3CCCCC3)cc2)CC1`: the T/C was 110 % of control (dose: 1.56 mg/kg/injection, vehicle: saline); 93 % of control (dose: 3.13 mg/kg/injection, vehicle: saline); 101 % of control under setting [8]; 97 % of control and 105 % of control under setting [9].

For the compound `CCN(CC)CCNc1ccc(C)c2sc3ccccc3c(=O)c12`, the T/C reads like this: under setting [8], 103 % of control; under setting [9], 100 % of control; (dose: 25.0 mg/kg/injection, vehicle: saline) 104 % of control; (dose: 50.0 mg/kg/injection, vehicle: saline) 104 % of control; (dose: 100.0 mg/kg/injection, vehicle: saline) 118 % of control.

Turning to `CCCC(=O)c1ccco1`, the T/C runs as follows: under setting [3], 98 % of control; under setting [4], 109 % of control; under setting [10], 100 % of control.

For `CCOC(=O)Nc1cc2c(c(N)n1)N=C(c1ccc3ccccc3c1)CN2`, the T/C was 97 % of control (dose: 0.5 mg/kg/injection, vehicle: saline with Tween-80); 110 % of control (dose: 1.0 mg/kg/injection, vehicle: saline with Tween-80); 101 % of control (dose: 1.44 mg/kg/injection, vehicle: saline with Tween-80); 113 % of control and 116 % of control (dose: 2.0 mg/kg/injection, vehicle: saline with Tween-80); 106 % of control (dose: 2.4 mg/kg/injection, vehicle: saline with Tween-80); 109 % of control and 122 % of control and 107 % of control (dose: 4.0 mg/kg/injection, vehicle: saline with Tween-80). Further, the T/C was 113 % of control (dose: 6.67 mg/kg/injection, vehicle: saline with Tween-80); 119 % of control (dose: 8.0 mg/kg/injection, vehicle: saline with Tween-80); 119 % of control (dose: 11.12 mg/kg/injection, vehicle: saline with Tween-80).

Take `COC(=O)NC1C(C)OC(OC2C/C=C(/C)C3C=CC4C(OC5CC(OC6CC(O)C(OC7CC(O)C(OC)C(C)O7)C(C)O6)C(O)C(C)O5)C(C)CC(C)C4C3(C)/C(O)=C3\C(=O)OC4(CC(C)C(CO)=CC4/C=C\2C)C3=O)CC1(C)[N+](=O)[O-]` (stereo not given): the T/C runs as follows: under setting [5], 100 % of control and 104 % of control; under setting [6], 110 % of control and 106 % of control; under setting [7], 121 % of control.

On to `CCN1CSC(=S)N(CC)C1`, for which the T/C runs as follows: under setting [4], 94 % of control; under setting [10], 94 % of control; under setting [11], 91 % of control.

In the case of `CC(C)(C)OC(=O)NC(CO)C(=O)O` (stereo not given), the T/C under setting [10] was 95 % of control; the T/C under setting [11] was 95 % of control; the T/C (dose: 200.0 mg/kg/injection, vehicle: saline with Tween-80) is 90 % of control.

On to `COc1ccc2c(c1)n([O-])c1ccccc1[n+]2=O`, for which the T/C by setting is: under setting [3], 103 % of control; (dose: 18.0 mg/kg/injection, vehicle: saline with Tween-80) 121 % of control; under setting [4], 108 % of control; (dose: 30.0 mg/kg/injection, vehicle: saline with Tween-80) 101 % of control and 103 % of control; under setting [10], 113 % of control and 114 % of control; (dose: 83.33 mg/kg/injection, vehicle: saline with Tween-80) 108 % of control and 115 % of control.

`Nc1ncnc2c1ncn2C1OC(CO)CC1O` (stereo not given): the T/C is 121 % of control (dose: 37.5 mg/kg/injection, vehicle: Klucel (hydroxypropylcellulose) (HPC)) and 123 % of control (dose: 75.0 mg/kg/injection, vehicle: Klucel (hydroxypropylcellulose) (HPC)).

Consider `COc1cccc2c1C(=O)c1c(O)c3c(c(O)c1C2=O)C[C@H](O)C[C@@H]3OC1CC(N)C(O)C(C)O1` (stereo not given in full), for which the T/C runs as follows: (dose: 0.75 mg/kg/injection, vehicle: saline) 150 % of control; (dose: 0.75 mg/kg/injection, vehicle: water) 159 % of control; (dose: 1.5 mg/kg/injection, vehicle: saline) 184 % of control; (dose: 1.5 mg/kg/injection, vehicle: water) 164 % of control; (dose: 3.0 mg/kg/injection, vehicle: saline) 175 % of control; (dose: 3.0 mg/kg/injection, vehicle: water) 192 % of control. Moreover, the T/C (dose: 6.0 mg/kg/injection, vehicle: saline) was 260 % of control; the T/C (dose: 6.0 mg/kg/injection, vehicle: water) is 215 % of control; the T/C (dose: 12.0 mg/kg/injection, vehicle: saline) is 346 % of control; the T/C (dose: 12.0 mg/kg/injection, vehicle: water) is 320 % of control; the T/C (dose: 24.0 mg/kg/injection, vehicle: saline) was 183 % of control.

In the case of `COc1cc2c(c(OC)c1O)-c1ccc(OC)c(=O)cc1[C@@H](NC(=O)C(F)(F)F)CC2`, the T/C was 119 % of control (dose: 0.62 mg/kg/injection, vehicle: Klucel (hydroxypropylcellulose) (HPC)); 122 % of control (dose: 0.63 mg/kg/injection, vehicle: Klucel (hydroxypropylcellulose) (HPC)); 118 % of control (dose: 1.25 mg/kg/injection, vehicle: Klucel (hydroxypropylcellulose) (HPC)); 120 % of control (dose: 2.5 mg/kg/injection, vehicle: Klucel (hydroxypropylcellulose) (HPC)); 156 % of control (dose: 4.17 mg/kg/injection, vehicle: Klucel (hydroxypropylcellulose) (HPC)).
